The values that follow come from publication PMC5760849 (2017).

One assay concerns (G4C2)4 RNA G-Q, dual-labelled (RNA, G4) GGGGCCGGGGCCGGGGCCGGGGCC
Put plainly: FRET melting. The conditions noted are these: Na+ (10 mM sodium cacodylate); pH 7.35; compound 2 μM; screening threshold, exact value only in figure.
As to `N=C(N)c1ccc(-c2ccc(-c3ccc(-c4ccc(C(=N)N)cn4)s3)s2)nc1`, the ΔTm was more than 13 °C.

Take `N=C(N)c1ccc(-c2ccc(-c3ccc(-c4ccc(C(=N)N)cn4)o3)o2)nc1`: the ΔTm is more than 13 °C.

For the compound `N=C(N)c1ccc(-c2ccc(-c3ccc(-c4ccc(C(=N)N)cn4)[se]3)[se]2)nc1`, the shift in melting temperature (ΔTm) is more than 13 °C.

In a further assay the test system is (G4C2)4 RNA (CD) (RNA, G4) GGGGCCGGGGCCGGGGCCGGGGCC
Put plainly: CD, induced signal 350–550 nm. The note with it: Na+ (10 mM sodium cacodylate); pH 7.35; RNA 1 μM; compound 2 μM.
On to `N=C(N)c1ccc(-c2ccc(-c3ccc(-c4ccc(C(=N)N)cn4)s3)s2)nc1`, for which the binding result is “yes”.

Turning to `N=C(N)c1ccc(-c2ccc(-c3ccc(-c4ccc(C(=N)N)cn4)o3)o2)nc1`, the binding entry is “yes”.

On to `N=C(N)c1ccc(-c2ccc(-c3ccc(-c4ccc(C(=N)N)cn4)[se]3)[se]2)nc1`, for which the binding entry is recorded as “yes”.
